Measurements: US12440489B2 (priority 2016, dated 2025)

How the values were obtained:
[1] = test system: 5-HT2 receptor; design: species or system mice; conditions: mouse, in vivo; for block of DOI head twitch (in words): po
[2] = test system: ERK2; assay: CNS phosphoprotein profile, ERK2 phosphorylation at Thr183 and Tyr185 in nucleus accumbens; type: in vivo, mice; conditions: 3 mg/kg; mouse nucleus accumbens
Procedure: (§1) A comprehensive molecular phosphorylation study is also carried out to examine the central nervous system (CNS) profile of the compounds of Example 1 and Example 3. The extent of protein phosphorylation for selected key central nervous system proteins is measured in mice nucleus accumbens.
(§2) Mice were killed 30 minutes to 2 hours post-injection by focused microwave cranial irradiation, which preserves brain phosphoprotein as it exists at the time of death. Nucleus accumbens was then dissected from each mouse brain, sliced and frozen in liquid nitrogen. Samples were further prepared for phosphoprotein analysis via SDS-PAGE electrophoresis followed by phosphoprotein-specific immunoblotting, as described in Zhu H, et al., Brain Res. 2010 Jun 25; 1342:11-23. Phosphorylation at each site was quantified, normalized to total levels of the protein (non-phosphorylated), and expressed as percent of the level of phosphorylation in vehicle-treated control mice.

[3] = test system: NR2B; assay: CNS phosphoprotein profile, NR2B phosphorylation at Tyr1472 in nucleus accumbens; type: in vivo, mice; conditions: 3 mg/kg; 30-60 minutes; mouse nucleus accumbens
Procedure: as §1, §2

[4] = test system: GluR1; assay: CNS phosphoprotein profile, GluR1 phosphorylation at Ser845 in nucleus accumbens; type: in vivo, mice; conditions: 3 mg/kg; mouse nucleus accumbens
Procedure: as §1, §2

[5] = test system: TH (tyrosine hydroxylase); assay: CNS phosphoprotein profile, tyrosine hydroxylase phosphorylation at Ser40 in nucleus accumbens; type: in vivo, mice; conditions: mouse nucleus accumbens; for effect on tyrosine hydroxylase phosphorylation at Ser40 (in words): 3 mg/kg, 30 minutes or 60 minutes; for increase in TH phosphorylation: haloperidol 2 mg/kg, risperidone dose not given
Procedure: as §1, §2

[6] = test system: Mice; assay: Mouse marble-burying study (OCD model); type: in vivo; conditions: for Marbles Buried: of 15 marbles, 30 min
From the text: The marble burying test is used to measure repetitive and anxiety-related behavior in rodents. It is based on the observation that rats and mice will bury either harmful or harmless objects in their bedding, and it has been used as an animal model to measure the effect of pharmacological interventions in treatment of repetitive behavior disorders, such as OCD.
MPEP is a selective mGluR5 glutamate receptor antagonist. […] Mice in groups (1) are orally administered the vehicle, and mice in group (4) are given an intraperitoneal injection of MPEP just prior to the start of the test.
The test is conducted in rectangular cages with 4-5 cm of wood chip bedding in a room with the window shades lowered and the door closed to minimize distractions. Fifteen clean marbles are evenly spaced on top of the bedding in three rows of five marbles. One mouse is placed in each cage. The mouse and cage is left undisturbed for 30 minutes. At the end of the test, the mouse is removed and the number of marbles buried to at least ⅔ of their depth is counted.

[7] = molecular target: Mu opiate receptor (Homo sapiens, UniProt P35372); type: binding
Mu opiate receptor, sequence (P35372 whole entry): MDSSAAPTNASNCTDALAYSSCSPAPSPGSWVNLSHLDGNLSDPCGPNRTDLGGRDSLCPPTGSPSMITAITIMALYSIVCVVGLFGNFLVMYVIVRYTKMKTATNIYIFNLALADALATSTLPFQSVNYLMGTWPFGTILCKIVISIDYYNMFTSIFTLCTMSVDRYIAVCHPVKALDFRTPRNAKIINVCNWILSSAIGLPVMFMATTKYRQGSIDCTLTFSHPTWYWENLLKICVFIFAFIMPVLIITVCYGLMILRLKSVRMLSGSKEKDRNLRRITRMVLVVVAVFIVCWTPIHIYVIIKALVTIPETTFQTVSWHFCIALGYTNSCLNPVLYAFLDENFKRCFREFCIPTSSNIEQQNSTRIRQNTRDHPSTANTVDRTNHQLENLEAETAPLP

In the case of `O=C1CN2c3c(cccc3[C@@H]3CN(CCCC(=O)c4ccc(F)cc4)CC[C@@H]32)N1` [Example 1, 4-((6bR,10aS)-2-Oxo-2,3,6b,9,10,10a-Hexahydro-1H,7H-Pyrido[3′,4′:4,5]Pyrrolo[1,2,3-De]Quinoxalin-8-Yl)-1-(4-Fluoro-Phenyl)-Butan-1-One], the “EC50 for reducing DOI-induced head twitches” value [1] is reported as 0.23 mg/kg, p.o, the “block of DOI head twitch (in words)” value [1] is reported as “potently block DOI head twitch” and the “effect on ERK2 phosphorylation at Thr183 and Tyr185 (in words)” value [2] is reported as “slight decrease”. For the same molecule, the “effect on NR2B phosphorylation at Tyr1472 (in words)” value [3] was “neither the compound of Example 1 nor of Example 3 has a significant effect”, the “effect on GluR1 phosphorylation at Ser845 (in words)” value [4] was “slight increase” and the “effect on tyrosine hydroxylase phosphorylation at Ser40 (in words)” value [5] was “neither the compound of Example 1 nor of Example 3 has a significant effect”.

`O=C1CN2c3c(cccc3[C@@H]3CN(CCCOc4ccc(F)cc4)CC[C@@H]32)N1` [Example 3, (6bR,10aS)-8-(3-(4-Fluorophenoxy)Propyl)-6b,7,8,9,10,10a-Hexahydro-1H-Pyrido[3′,4′:4,5]Pyrrolo[1,2,3-De]Quinoxalin-2(3H)-One] was tested, and the “EC50 for reducing DOI-induced head twitches” value [1] was 0.44 mg/kg, p.o, the “block of DOI head twitch (in words)” value [1] was “potently block DOI head twitch” and the “effect on ERK2 phosphorylation at Thr183 and Tyr185 (in words)” value [2] was “slight decrease”. The “effect on NR2B phosphorylation at Tyr1472 (in words)” value [3] was “neither the compound of Example 1 nor of Example 3 has a significant effect”, the “Marbles Buried” value ([6]; 0.3 mg/kg orally 30 minutes prior to the test) was 9.3 and the “decrease in marble burying compared to the control (in words)” value ([6]; 0.3 mg/kg, p <0.01) was “statistically significant decrease”. For the same molecule, the “effect on GluR1 phosphorylation at Ser845 (in words)” value [4] was “slight increase” and the “effect on tyrosine hydroxylase phosphorylation at Ser40 (in words)” value [5] was “neither the compound of Example 1 nor of Example 3 has a significant effect”.

With `CN1CCN2c3c(cccc31)[C@@H]1CN(CCCC(=O)c3ccc(F)cc3)CC[C@@H]12` [Formula A, reference compound] the “activity at the Mu opiate receptor (in words)” value [7] was “not active”.

For `CN1CCN2c3c(cccc31)[C@@H]1CN(CCCC(O)c3ccc(F)cc3)CC[C@@H]12` (stereo partly shown) [Formula B, reference compound], the “EC50 for reducing DOI-induced head twitches” value [1] was 0.31 mg/kg, p.o.

`Cc1cccc(C#Cc2ccccc2)n1` [MPEP, 2-methyl-6-(phenylethynyl)pyridine, reference compound] was tested, and the “Marbles Buried” value ([6]; 20 mg/kg intraperitoneal just prior to the test) was 0.2.

In the case of `O=C(CCCN1CCC(O)(c2ccc(Cl)cc2)CC1)c1ccc(F)cc1` [haloperidol, reference compound], the “increase in TH phosphorylation” value [5] is reported as “greater than 400%”.

`Cc1nc2n(c(=O)c1CCN1CCC(c3noc4cc(F)ccc34)CC1)CCCC2` [risperidone, reference compound] was tested, and the “increase in TH phosphorylation” value [5] was “greater than 500%”.
